The structures appear in SMILES notation. Where two headings read alike, the source gives them in different places.

We go through 1 compound from patent US6387848B1, “Non-aqueous concentrated spreading oil composition” (priority 2000, dated 2002).

The test system of test [1] is Pyricularia oryzae. The format is in vivo. The settings on record: added to the water, 126 day after treatment.
Test [2] relates to Pyricularia oryzae. Format: in vivo. The settings on record: added to the water, 52 days after treatment.
Setting [3] is: Granules 50 g/kg, dose 100 g/ha.
Setting [4] is: Granules 50 g/kg, dose 250 g/ha.
Setting [5] is: Granules 50 g/kg, dose 500 g/ha.
Setting [6] is: Granules 50 g/kg, dose 1000 g/ha.
Setting [7] is: SO 30 g/L (Example 1), dose 50 g/ha.
Setting [8] is: SO 30 g/L (Example 1), dose 100 g/ha.
[9] abbreviates: SO 30 g/L (Example 1), dose 250 g/ha.
Where [10] appears, read: SO 30 g/L (Example 1), dose 500 g/ha.
[11] abbreviates: SO 30 g/L (Example 1), dose 1000 g/ha.

`C[C@H](Nc1c(-c2c(F)cc(F)cc2F)c(Cl)nc2ncnn12)C(F)(F)F` [(S)-Azolopyrimidine C, 5-chloro-6-(2,4,6-trifluorophenyl)-7-(1,1,1-trifluoroprop-2-ylamino)-[1,2,4]triazolo[1,5-a]pyrimidine]: the “Percent rice danicle blast control, control (%)” value came to 39% with Pyricularia oryzae [1] (setting [3]); 44% in the test with Pyricularia oryzae [1] (setting [4]); 67% in the test on Pyricularia oryzae [1] (setting [5]); 82% in the test with Pyricularia oryzae [1] (setting [6]); 22% in the test on Pyricularia oryzae [1] (setting [7]); 44% in the test on Pyricularia oryzae [1] (setting [8]). Also, the “Percent rice danicle blast control, control (%)” value in the test on Pyricularia oryzae [1] (setting [9]) is given as 67%; with Pyricularia oryzae [1] (setting [10]) it was 78%; in the test with Pyricularia oryzae [1] (setting [11]) it was 84%. Besides, the “Percent rice leaf blast control, control (%)” value in the test with Pyricularia oryzae [2] (setting [3]) is reported as 78%; in the test on Pyricularia oryzae [2] (setting [4]), 86%; with Pyricularia oryzae [2] (setting [5]) it was 90%; in the test with Pyricularia oryzae [2] (setting [6]) it was 95%; with Pyricularia oryzae [2] (Granules 50 g/kg, dose 1500 g/ha), 97%; with Pyricularia oryzae [2] (setting [7]) it was 84%. Also, the “Percent rice leaf blast control, control (%)” value was determined as 89% with Pyricularia oryzae [2] (setting [8]), 95% in the test on Pyricularia oryzae [2] (setting [9]), 97% with Pyricularia oryzae [2] (setting [10]) and 98% with Pyricularia oryzae [2] (setting [11]).
